Test results as given in patent US6265438A, “Vitamin compatible micronutrient supplement” (Heritage Technologies, LLC, priority 1999, dated 2001).
Like-named read-outs stand apart in the source and are kept apart here.

Columns and labels:
[1] = Hygroscopicity (weight gain in 90% humidity); format: physicochemical; conditions: 140 hr
Method: Tribasic zinc sulfate can be prepared in a reaction system depicted in FIG. 1. Initially the reactor vessel contained 100 ml of dionized water.
Initially the reactor vessel contained 100 ml of an aqueous solution of ammonium sulfate (400 g/l).

[2] = 98 ° F., about 3 months, 131400 min, cited from earlier work
[3] = Chick feeding trial: feed intake, body weight, bone ash; format: in vivo; conditions: chicks fed 3 weeks
Method: Feed intake was recorded per pen.
Relative bioavailability estimates were calculated using slope ratios.

[4] = in vivo
Method: Chicks were fed the respective basal diets for 21 days. There were six pens each containing six chicks (three male and three female) for each of eight dietary treatments, for a total of 288 birds. Chicks were housed in two Petersime brooder units with stainless steel fittings and maintained on a 24-hour constant light schedule. Tap water containing no detectable zinc and feed were available ad libitum. Feed intake was recorded per pen. At the end of the experiment, birds were weighed individually, killed by cervical dislocation, and right tibia removed and frozen individually for zinc analysis.
Zinc concentrations in basal diet, water, zinc sources, and tibias were determined by flame atomic absorption spectrophotometry (Model 5000 with an AS-50 autosampler, Perkin-Elmer, Norwalk Conn. 06859-0156, Anonymous, 1982. Analytical Methods for Atomic Absorption Spectrophotometry. Perkin-Elmer Corp., Norwalk, Conn.). Diet samples were dried at 105° C. for 12 hours, then were dry ashed at 550° C. for 12 hours, solubilized in HCl, and filtered through 42 Whatman paper. Bones were boiled for approximately 10 minutes in deionized water and cleaned of all soft tissue. Tibias with associated cartilages were dried for 12 hours at 105° C., extracted in a Soxhlet apparatus with petroleum ether for 48 hours prior to ashing, and then solubilized as indicated above. Water was concentrated 10-fold by evaporation on a hotplate. Zinc sources were refluxed for 4 hours in 1:1 (v:v) concentrated HCl--HNO3 and filtered through 42 Whatman paper. Standards were matched for macroelement and acid concentrations as needed.
Data were analyzed by two-way ANOVA with a model that included zinc source, dietary zinc concentration, and their interaction. Each of the six pens were used as experimental units. Body weight, feed intake, and percentage of bone ash were also analyzed by the General Linear Models (GLM) (SAS Institute, 1990. SAS/STAT User's Guide (Release 6.04) SAS Institute Inc., Cary, N.C.) with an LSMEANS statement and PDIFF option to compare treatment means. Multiple linear regression of bone zinc concentration on added dietary zinc concentration was calculated using GLM. Relative bioavailability estimates were calculated using slope ratios.

Water solubility = format: physicochemical
[5] = Sandoval et al. (1997), similar sample, cited from earlier work
E. coli = assay: Effect of zinc compounds on bacteria (colony count); format: cell-based, DMV strain; conditions: each of the bacteria tested
Method: (§1) A series of 42 test tubes were filled with 7 ml of distilled water, and the pH of the water was adjusted to a pH of 7. Fourteen tubes were selected, and 1 ml of an aqueous stock solution containing DMV (DelMarVa-Delaware, Maryland, Virginia source) strain of E. coli was added to each of the 14 tubes. A second set of 14 tubes was selected. To each tube in this second set was added 1 ml stock solution containing a DMV strain of salmonella. A third set of 14 tubes was then selected, and to each these tubes was added 1 ml of a stock solution containing a DMV strain of camplobacter.
(§2) Two tubes from each of the three sets served as controls, and no zinc compounds were added to these controls. […] The pH of half of the tubes from each set was adjusted to a pH of 2 by the addition of concentrated HCl; the pH of the other half of the tubes was maintained at a pH of 7. Sufficient water was added to each tube to provide a final volume of 10 ml. All the tubes were placed in an incubator that was maintained at 37° C. for three hours.
(§3) After three hours, 0.20 ml was taken from each of the tubes, of which 0.1 ml was used to inoculate a MacConley Ager plate and 0.1 ml was used to inoculate a Blood Ager plate. […] After 24 hours, each late was examined and the number of colonies on each plate was evaluated.

Salmonella = assay: as above; format: cell-based, DMV strain; conditions: each of the bacteria tested
Method: as §1, §2, §3

Camplobacter = assay: as above; format: cell-based, DMV strain; conditions: each of the bacteria tested

Molecule	Hygroscopicity [1]	Body Weight ([3]; added Zn 200 ppm) [g]	Bone Ash ([3]; added Zn 200 ppm) [ash wt %]	Feed Intake ([3]; added Zn 200 ppm) [g/bird]	Body Weight ([3]; added Zn 400 ppm) [g]	Bone Ash ([3]; added Zn 400 ppm) [ash wt %]	Feed Intake ([3]; added Zn 400 ppm) [g/bird]	Slope ± SE (regression of bone zinc concentration on added dietary zinc concentration) [4]	Bioavailability of zinc (in words) [4]	other results
O.O.O.O.O.O=S(=O)([O-])[O-].[Cu+2] [copper sulfate pentahydrate]	14.4 % weight gain	–	–	–	–	–	–	–	–	–
Cc1ncc(CO)c(CO)c1O [pyridoxine]	–	–	–	–	–	–	–	–	–	Loss of pyridoxine activity ([2]; multi-vitamin premixes containing inorganic trace minerals): about 55%; Loss of pyridoxine activity ([2]; premix containing no trace minerals): about 24%
[Cl-].[Cl-].[Zn+2] [reagent grade zinc chloride, zinc chloride]	126.5 % weight gain	–	–	–	–	–	–	–	–	–
O.O.O.O.O.O.O.O=S(=O)([O-])[O-].[Zn+2] [reagent grade zinc sulfate, zinc sulfate heptahydrate, reference compound]	36.1 % weight gain	574	44.2	710	559	42.8	679	0.1193 ± 0.0316	–	–
O=S(=O)([O-])[O-].[Cu+2].[Cu+2].[Cu+2].[Cu+2].[OH-].[OH-].[OH-].[OH-].[OH-].[OH-] [tribasic copper sulfate]	about 1.73 % weight gain	–	–	–	–	–	–	–	–	Water solubility (Water solubility): about 430 mg Cu per liter
[O]=[Zn] [zinc oxide]	–	–	–	–	588	44.4	709	0.0584 ± 0.0309	lower (P<0.05) than that for other sources	Relative bioavailability value (slope ratio) ([4]; chicken, 30240 min): 49.0±10.1%; Relative value ± SE (slope ratio of bone zinc regression) ([4]; chicken, 30240 min): 49.0 ± 10.1; 95% Confidence Interval of relative value [4]: 28.7-69.2; Solubility in HCl ([5]; 60 min): 99%; Solubility in citric acid ([5]; 60 min): 69%; Solubility in neutral ammonium citrate ([5]; 60 min): 53%; Solubility in water [5]: insoluble
basic zinc chloride	–	592	45.1	724	563	43.6	652	0.1273 ± 0.0316	equal to that of reagent grade zinc sulfate	–
basic zinc sulfate	–	585	44.4	690	599	44.5	708	0.1200 ± 0.0316	equal to that of reagent grade zinc sulfate	–
tribasic zinc chloride	–	–	–	–	–	–	–	–	–	Growth rate of bacteria (in words) (E. coli): significantly reduced the growth rate; Growth rate of bacteria (in words) (Salmonella): significantly reduced the growth rate; Growth rate of bacteria (in words) (Camplobacter): significantly reduced the growth rate
tribasic zinc sulfate	about 4.65 % weight gain	–	–	–	–	–	–	–	–	Water solubility (Water solubility): about 15 mg zinc per liter
